Laboratory results taken from ChEMBL document CHEMBL1201862, “PubChem BioAssay data set” (2004).
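Values below derive from 48-hour exposures of cells grown in 96-well plates, with endpoints linearly interpolated between the two concentrations bracketing the appropriate inhibition level. GI50 marks 50% less growth.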 The source made the active and inactive calls. No stated cut-off is given here; in the data, active = GI50 up to about 1.1 µM and inactive = higher. Where a SMILES comes first, the peptide text is derived from it. [ ]: non-standard residue; d: D form. The star is where a group is joined. ξ: configuration not given here. ξD = NC(CC(=O)O)C(=O)O; Boc = CC(C)(C)OC(=O)*; Aib = CC(C)(N)C(=O)O; OBn = c1ccc(CO*)cc1

What was measured:
Assay in all cases: NCI anticancer screen, dose series, 48 h
SK-MEL-2 = tested on: SK-MEL-2
MCF7 = tested on: MCF7
HT-29 = tested on: HT-29
786-0 = tested on: 786-0
Hs-578T = tested on: Hs-578T
MOLT-4 = tested on: MOLT-4
HCT-15 = tested on: HCT-15
COLO 205 = tested on: COLO 205
MDA-MB-435 = tested on: MDA-MB-435
T47D = tested on: T47D
SF-295 = tested on: SF-295
HOP-62 = tested on: HOP-62
A498 = tested on: A498
HOP-92 = tested on: HOP-92
RPMI-8226 = tested on: RPMI-8226
SK-OV-3 = tested on: SK-OV-3
BT-549 = tested on: BT-549
CCRF-CEM = tested on: CCRF-CEM
NCI-H226 = tested on: NCI-H226
SN12C = tested on: SN12C

SMILES	GI50 (SK-MEL-2)	GI50 (MCF7)	GI50 (HT-29)	GI50 (786-0)	GI50 (Hs-578T)	GI50 (MOLT-4)	GI50 (HCT-15) [µM]	GI50 (COLO 205)	GI50 (MDA-MB-435)	GI50 (T47D)	GI50 (SF-295)	GI50 (HOP-62)	GI50 (A498)	GI50 (HOP-92)	GI50 (RPMI-8226)	GI50 (SK-OV-3)	GI50 (BT-549)	GI50 (CCRF-CEM)	GI50 (NCI-H226)	GI50 (SN12C)
O=[N+]([O-])c1cc(-c2nc(-c3ccccc3)c(-c3ccccc3)[nH]2)c(O)c([N+](=O)[O-])c1	19.9 µM (inactive)	24.7 µM (inactive)	16.8 µM (inactive)	21.6 µM (inactive)	27.4 µM (inactive)	22.8 µM (inactive)	15.8	21.8 µM (inactive)	32.6 µM (inactive)	20.3 µM (inactive)	22.3 µM (inactive)	20.4 µM (inactive)	20.8 µM (inactive)	19.8 µM (inactive)	27 µM (inactive)	20.2 µM (inactive)	20 µM (inactive)	25.9 µM (inactive)	20.1 µM (inactive)	26.5 µM (inactive)
O=[N+]([O-])c1ccc2ncccc2c1CCc1c([N+](=O)[O-])ccc2ncccc12	> 100 µM (inactive)	> 100 µM (inactive)	> 100 µM (inactive)	> 100 µM (inactive)	> 100 µM (inactive)	> 100 µM (inactive)	> 100	> 100 µM (inactive)	> 100 µM (inactive)	> 100 µM (inactive)	> 100 µM (inactive)	> 100 µM (inactive)	> 100 µM (inactive)	> 35.3 µM (inactive)	> 100 µM (inactive)	> 100 µM (inactive)	> 100 µM (inactive)	> 100 µM (inactive)	> 100 µM (inactive)	> 100 µM (inactive)
O=C(CCc1ccccc1)On1c(-c2ccccc2)nc2ccccc2c1=S	8.81 µM (inactive)	4.54 µM (inactive)	3.85 µM (inactive)	2.06 µM (inactive)	13.1 µM (inactive)	0.455 µM (active)	2.32	4.28 µM (inactive)	8.18 µM (inactive)	6.79 µM (inactive)	3.99 µM (inactive)	3.66 µM (inactive)	65.8 µM (inactive)	42.7 µM (inactive)	7.28 µM (inactive)	6.84 µM (inactive)	14.5 µM (inactive)	1.77 µM (inactive)	5.62 µM (inactive)	11.9 µM (inactive)
COc1ccc(-n2cnc3c(NC(C)(C)C(=O)O)ncnc32)cc1	> 100 µM (inactive)	> 100 µM (inactive)	> 100 µM (inactive)	> 100 µM (inactive)	> 100 µM (inactive)	> 100 µM (inactive)	> 100	> 100 µM (inactive)	> 100 µM (inactive)	> 100 µM (inactive)	> 100 µM (inactive)	> 100 µM (inactive)	> 100 µM (inactive)	> 100 µM (inactive)	> 100 µM (inactive)	> 100 µM (inactive)	> 100 µM (inactive)	> 100 µM (inactive)	> 100 µM (inactive)	> 100 µM (inactive)
OC1(c2ccc3ccccc3c2)c2c(c3ccccc3c3ccccc23)C2=NCCN21 (centres undefined)	7.16 µM (inactive)	3.48 µM (inactive)	2.8 µM (inactive)	7.5 µM (inactive)	6.14 µM (inactive)	4.81 µM (inactive)	4.63	1.85 µM (inactive)	2.17 µM (inactive)	4.45 µM (inactive)	3.09 µM (inactive)	9.33 µM (inactive)	12.1 µM (inactive)	7.18 µM (inactive)	2.52 µM (inactive)	6.68 µM (inactive)	14.7 µM (inactive)	4.25 µM (inactive)	34.5 µM (inactive)	9.2 µM (inactive)
O=C(NCCc1ccccn1)c1ccc2cc(C(=O)N3CC(CCl)c4ccc([N+](=O)[O-])cc43)[nH]c2c1 (centres undefined)	> 100 µM (inactive)	> 67.9 µM (inactive)	> 100 µM (inactive)	9.64 µM (inactive)	94.6 µM (inactive)	> 100 µM (inactive)	77.4	> 100 µM (inactive)	> 100 µM (inactive)	> 100 µM (inactive)	> 35.3 µM (inactive)	13.2 µM (inactive)	> 57.7 µM (inactive)	9.46 µM (inactive)	> 100 µM (inactive)	10.6 µM (inactive)	> 100 µM (inactive)	> 100 µM (inactive)	> 58.9 µM (inactive)	> 65 µM (inactive)
C[C@H](CCC(=O)O[C@@H]1CC[C@@]2(C)C(CC[C@H]3[C@@H]4CC[C@H]([C@H](C)CCc5nc6ccccc6[nH]5)[C@@]4(C)CC[C@@H]32)C1)[C@H]1CC[C@H]2[C@@H]3CCC4C[C@H](O)CC[C@]4(C)[C@H]3CC[C@]12C (some centres undefined)	> 100 µM (inactive)	6.34 µM (inactive)	> 57.5 µM (inactive)	11.5 µM (inactive)	0.494 µM (active)	> 100 µM (inactive)	> 80.2	> 100 µM (inactive)	> 100 µM (inactive)	5.04 µM (inactive)	16.7 µM (inactive)	25.7 µM (inactive)	> 87.5 µM (inactive)	> 100 µM (inactive)	> 100 µM (inactive)	> 81.5 µM (inactive)	> 100 µM (inactive)	> 100 µM (inactive)	> 100 µM (inactive)	> 100 µM (inactive)
c1ccc(-c2cn3c(nc4ccccc43)c(-c3ccccc3)n2)cc1	30.1 µM (inactive)	69.7 µM (inactive)	71 µM (inactive)	16.1 µM (inactive)	16.3 µM (inactive)	> 100 µM (inactive)	> 100	> 100 µM (inactive)	> 87.7 µM (inactive)	> 39.6 µM (inactive)	14.8 µM (inactive)	7.13 µM (inactive)	44.6 µM (inactive)	16.9 µM (inactive)	> 100 µM (inactive)	10.2 µM (inactive)	29.4 µM (inactive)	> 100 µM (inactive)	> 60.8 µM (inactive)	65.8 µM (inactive)
CC(C)(C)OC(=O)NC(CC(=O)OCc1ccccc1)C(=O)NC(C)(C)C(N)=O (centres undefined) (Boc-[ξD](OBn)-[Aib]-NH2)	> 100 µM (inactive)	> 100 µM (inactive)	> 100 µM (inactive)	> 100 µM (inactive)	> 100 µM (inactive)	> 100 µM (inactive)	> 100	> 100 µM (inactive)	> 100 µM (inactive)	> 100 µM (inactive)	> 100 µM (inactive)	> 100 µM (inactive)	> 100 µM (inactive)	> 100 µM (inactive)	> 100 µM (inactive)	> 100 µM (inactive)	> 100 µM (inactive)	> 100 µM (inactive)	> 100 µM (inactive)	> 100 µM (inactive)
CCOC(=O)N/N=C/C1=NN(C(=O)OCC)[S+]([O-])C1C (centres undefined)	> 100 µM (inactive)	> 100 µM (inactive)	> 100 µM (inactive)	> 100 µM (inactive)	> 100 µM (inactive)	> 100 µM (inactive)	> 100	> 100 µM (inactive)	> 100 µM (inactive)	> 100 µM (inactive)	> 100 µM (inactive)	> 100 µM (inactive)	> 100 µM (inactive)	> 100 µM (inactive)	> 100 µM (inactive)	> 100 µM (inactive)	> 100 µM (inactive)	> 100 µM (inactive)	> 100 µM (inactive)	> 100 µM (inactive)
C[n+]1c(Cl)cn2c3nc4ccccc4nc3c([O-])c(C#N)c21	> 4.65 µM (inactive)	18.1 µM (inactive)	> 100 µM (inactive)	> 100 µM (inactive)	> 100 µM (inactive)	> 100 µM (inactive)	> 10	> 100 µM (inactive)	> 100 µM (inactive)	41.7 µM (inactive)	> 100 µM (inactive)	> 10 µM (inactive)	> 62.7 µM (inactive)	> 100 µM (inactive)	> 100 µM (inactive)	> 100 µM (inactive)	> 100 µM (inactive)	77.3 µM (inactive)	> 100 µM (inactive)	> 100 µM (inactive)
CC(C)c1ccc(/C(C(=O)O)=C(\O)C(=O)O)cc1	> 100 µM (inactive)	> 100 µM (inactive)	> 100 µM (inactive)	> 100 µM (inactive)	> 100 µM (inactive)	> 100 µM (inactive)	> 100	> 100 µM (inactive)	> 100 µM (inactive)	> 100 µM (inactive)	> 100 µM (inactive)	> 100 µM (inactive)	> 100 µM (inactive)	> 100 µM (inactive)	> 100 µM (inactive)	> 100 µM (inactive)	> 100 µM (inactive)	> 100 µM (inactive)	> 100 µM (inactive)	> 100 µM (inactive)
O=C(N/N=C/c1ccc2c(c1)CCC2)c1ccccc1O	23.4 µM (inactive)	16.2 µM (inactive)	27.3 µM (inactive)	18.5 µM (inactive)	22.9 µM (inactive)	36.9 µM (inactive)	22.9	53.7 µM (inactive)	21.5 µM (inactive)	25.5 µM (inactive)	16.4 µM (inactive)	17 µM (inactive)	15.7 µM (inactive)	24.5 µM (inactive)	32.5 µM (inactive)	12.1 µM (inactive)	19.3 µM (inactive)	8.71 µM (inactive)	32.1 µM (inactive)	23.1 µM (inactive)
COc1ccc(C(=O)c2sc(Nc3ccccc3)nc2N)cc1	4.88 µM (inactive)	4.9 µM (inactive)	> 100 µM (inactive)	13.1 µM (inactive)	23.3 µM (inactive)	2.16 µM (inactive)	3.84	–	1.36 µM (inactive)	> 100 µM (inactive)	32.4 µM (inactive)	21 µM (inactive)	> 100 µM (inactive)	50.1 µM (inactive)	3.72 µM (inactive)	26.9 µM (inactive)	> 100 µM (inactive)	1.17 µM (inactive)	> 100 µM (inactive)	> 60.5 µM (inactive)
